From patent US9394307B2, “Fused heteroaryl pyridyl and phenyl benzenesuflonamides as CCR2 modulators for the treatment of inflammation” (ChemoCentryx, Inc., priority 2007, dated 2016)
Where “and” joins values, the source holds several entries; their conditions need not be identical. Equal values may be shown once. Read-outs that look alike come from different tables or passages of the source.

What was measured:
CYP3A4 = CYP3A4 (Homo sapiens (Human), UniProt P08684); experiment: CYP3A4 inhibition assay in pooled human liver microsomes; format: in vitro ADME; settings: NADPH, 37° C., read-out: CYP 3A4 Inhibition IC50
Description: (§1) The test compounds were incubated with pooled human liver microsomes at 37° C. in the presence of NADPH and appropriate concentrations of substrates specific for CYP2C9 and 3A4. The final assay concentrations of human liver microsomes and substrates, the initial substrate stock solution concentrations in DMSO, and the times used for the various isozyme incubations are summarized in Table 4.
(§2) 120 μL of a mixture of human liver microsomes (HLM) in 50 mM potassium phosphate/5 mM MgCl2 buffer was added into all wells of row A in a 96-well plate. The concentration of microsomal protein was 2-fold the intended protein concentration for the particular isozyme assay recorded in Table 4. In addition, 80 μL of this human liver microsome preparation spiked with 1% DMSO was dispensed into all wells of rows B through H.
1.2 μL of each individual test compound in DMSO (10 mM) was added to the first 10 wells of row A (5 different test compounds each in duplicate). Additionally, 1.2 μL of the DMSO stock of the control inhibitor for the isozyme under study was added into the final two wells of row A to give a concentration two-fold above the highest final concentration. (See Table 5 for the final control inhibitor concentrations)
This process was repeated for rows D through G. After mixing, 40 μL was removed and discarded from the wells of row G.
The plate was covered and pre-incubated for 10 minutes in a 37° C. incubator. […]
(§3) Samples were analyzed by the LC-MS/MS method. Each metabolite (Table 6) derived from the particular substrate for each different CYP450 isoform was monitored. […]
(§4) AUCtest, AUCcontrol and AUCblank are the peak area count for the metabolite of the control in the presence of test article or positive inhibitor, the peak area count of metabolite of the control without test article, and peak area count observed in the microsome blank, respectively. […] The IC50 values were calculated using a 4-parameter fit in XLFit™ (IDBS Lid, Guildford, UK).

[1] = Intravenous/oral pharmacokinetic study in Sprague-Dawley rats; format: in vivo; settings: rat, plasma, male Sprague-Dawley rats; for MRT: read-out: Rat PK MRT (converted); for half-life: read-out: Rat PK T1/2
Description: An intravenous/oral pharmacokinetic study with the selected compounds was conducted in male Sprague-Dawley rats weighing between 0.24 and 0.36 kg. Blood samples were collected at predetermined time points and the corresponding plasma samples from the animals were analyzed for test compound concentrations using an LC-MS/MS method. The pharmacokinetic parameters were derived from the plasma concentration versus time curve.
Eight animals weighing between 0.24 and 0.36 kg were used for this study. Two animals were used for the i.v. dosing, whereas the later six were for oral dosing.
For i.v. dosing, a solution formulation of test compound was prepared in propylene glycol/N,N-dimethyl acetamide/EtOH (31.6/31.6/36.8) at 1 mg/mL and each animal received 1 mL/kg. For oral dosing, a the test compounds were suspended in 1% HPMC at 0.5 mg/mL and each animal received 10 mL/kg.
Animals were fasted overnight and examined prior to dosing and at the conclusion of the study. For intravenous dosing, blood (0.2 mL) was drawn at pre-dose and at 2, 5, 10, 15, and 30 minutes, 1, 2, 4, 6, and 8 hours post-dose. For oral dosing, blood (0.2 mL) was drawn at pre-dose and at 5, 15, and 30 minutes, 1, 1.5, 2, 4, 6, 8, and 24 hours post-dose. Blood was sampled from canulated animals and then placed into chilled polypropylene tubes containing sodium EDTA as the anticoagulant and kept on ice until centrifugation. Plasma was collected through centrifugation (Eppendorf Centriguge 5417R) at 12000 rpm and 4° C. for 6 minutes and stored at −20° C. until analysis.
Plasma samples (50 μL) were extracted with 150 μL acetonitrile containing the internal standard on a linear shaker for 10 min. The samples were centrifuged at 4450 RPM for 10 min at 4° C. (Allegra X-15R centrifuge, Beckman Coulter, Inc., Fullerton, Calif.). 80 μL of the resultant supernatant was transferred into new plate wells containing 80 μL 0.1% formic acid in water and thoroughly mixed.
Extracted samples prepared using the above procedure were separated by high-performance liquid chromatography using a Shimadzu (Kyoto, Japan) system equipped with two LC-10 AD pumps and a C-18 column (Waters Sunfire, 2×30 mm, 3.5 μm; 10 μl injection) using a mobile phase consisting of (A) 0.1% formic acid in water and (B) 0.1% formic acid in acetonitrile, at a flow rate of 0.35 mL/min. The gradient was 0-1.5 min 5% B, 1.5-2.5 min 5-95% B, 2.5-2.7 min 95% to 5% B, and 2.7-4.0 min 5% B. The HPLC elute was routed into an Applied Biosystems (Foster City, Calif.) Sciex API 3000 triple quadrupole mass spectrometer, operating in the Turbo Ionspray positive ionization MS/MS mode for analysis. Acquisition and integration were performed with Applied Biosystems-Sciex Analyst software (version 1.4.1). The calibration curve was obtained through a quadratic (i.v.) or linear (p.o.) regression and the calibration range was 4-5000 ng/mL and 2-5000 ng/mL for the i.v. and p.o. studies, respectively.
A total of eleven time points were obtained for each dosing route during the blood collection period. Descriptive pharmacokinetic parameters were determined from the plasma concentration-time curve by a standard non-compartmental analysis (Wagner, 1993) from each animal and dose route. • Half-life (T1/2): Terminal half-life. • Cmax: Maximum plasma concentration • AUC0-∞: Area under the plasma concentration-time curve from time of dosing extrapolated to infinity. • CL: Total body clearance. • MRT0-∞: Mean residence time from the time of dosing extrapolated to infinity • Vdss: Volume of distribution at steady state. • F: Bioavailability.
Pharmacokinetic analysis was performed by using XLFit® v.4.1 (ID Business Solutions Inc., Alameda, Calif.).

CYP2C9 = CYP2C9 (Homo sapiens (Human), UniProt P11712); experiment: CYP2C9 inhibition assay in pooled human liver microsomes; format: in vitro ADME; settings: NADPH, 37° C., diclofenac substrate, read-out: CYP 2C9 Inhibition IC50
Description: as §1
as §2, with “H. […]” for “H.”
as §3, §4

CCR2 = CCR2 (Homo sapiens (Human), UniProt P41597); experiment: CCR2 chemotaxis assay (conventional migration assay, THP-1 cells, MCP-1); format: cell-based
Description: In vitro cell migration assays can be performed (but are not limited to this format) using the 96-well microchamber (called ChemoTX™). […] In this assay, CCR2-expressing cells (such as THP-1) are first incubated with a compound of interest, such as a possible CCR2 antagonist, respectively, at increasing concentrations. Typically, fifty thousand cells per well are used, but the amount can range from 10^3-10^6 cells per well.
THP-1 cells were obtained from the American Type Culture Collection (Manassas, Va.) and cultured in RPMI tissue culture medium supplemented with 10% fetal calf serum (FCS) in a humidified 5% CO2 incubator at 37° C. […] ChemoTX® chemotaxis microchambers were purchased from Neuro Probe (Gaithersburg, Md.). CyQUANT® cell proliferation kits were purchased from Molecular Probes (Eugene, Oreg.).
Conventional migration assay was used to determine the efficacy of potential receptor antagonists in blocking migration mediated through chemokines (such as CCR2). This assay was routinely performed using the ChemoTX® microchamber system with a 5-μm pore-sized polycarbonate membrane. To begin such an assay, chemokine expressing cells (such as THP-1 cells for CCR2 assay) were harvested by centrifugation of cell suspension at 1000 RPM on a GS-6R Beckman centrifuge. The cell pellet was resuspended in chemotaxis buffer (HBSS with 0.1% BSA) at 10×10^6 cells/mL for CCR2 assay. Test compounds at desired concentrations were prepared from 10 mM stock solutions by serial dilutions in chemotaxis buffer. An equal volume of cells and compounds were mixed and incubated at room temperature for 15 minutes. […] To quantify cells migrated across the membrane, 5 μL of 7× CyQUANT® solution was added to each well in the lower chamber, and the fluorescence signal measured on a Spectrafluor Plus fluorescence plate reader (TECAN, Durham, N.C.). The degree of inhibition was determined by comparing migration signals between compound-treated and untreated cells. […]

in vivo = settings: male, beagle, dog, plasma
Description: (§5) PK parameters were determined by non-compartmental analysis.

[2] = Pharmacokinetics and oral bioavailability in the beagle dog; settings: male beagle dog, oral 5 mg/kg vs i.v. 1 mg/kg
Description: as §5

[3] = THP-1 cells, 0.1 nM MCP-1, read-out: IC50 in the CCR2 chemotaxis assay

Sequence of CCR2 (P41597 other isoform, or with tags, fused parts or gaps isoform P41597-2): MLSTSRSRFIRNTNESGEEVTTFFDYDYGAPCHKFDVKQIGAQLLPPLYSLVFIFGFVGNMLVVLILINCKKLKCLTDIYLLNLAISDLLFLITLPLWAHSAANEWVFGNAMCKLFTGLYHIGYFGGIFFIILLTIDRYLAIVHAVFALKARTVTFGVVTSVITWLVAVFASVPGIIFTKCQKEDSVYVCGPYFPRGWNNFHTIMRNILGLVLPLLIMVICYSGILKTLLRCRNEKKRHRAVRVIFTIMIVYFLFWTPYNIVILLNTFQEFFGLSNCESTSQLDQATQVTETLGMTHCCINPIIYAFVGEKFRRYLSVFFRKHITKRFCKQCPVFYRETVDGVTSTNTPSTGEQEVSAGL
Sequence of CYP3A4 (P08684 whole entry): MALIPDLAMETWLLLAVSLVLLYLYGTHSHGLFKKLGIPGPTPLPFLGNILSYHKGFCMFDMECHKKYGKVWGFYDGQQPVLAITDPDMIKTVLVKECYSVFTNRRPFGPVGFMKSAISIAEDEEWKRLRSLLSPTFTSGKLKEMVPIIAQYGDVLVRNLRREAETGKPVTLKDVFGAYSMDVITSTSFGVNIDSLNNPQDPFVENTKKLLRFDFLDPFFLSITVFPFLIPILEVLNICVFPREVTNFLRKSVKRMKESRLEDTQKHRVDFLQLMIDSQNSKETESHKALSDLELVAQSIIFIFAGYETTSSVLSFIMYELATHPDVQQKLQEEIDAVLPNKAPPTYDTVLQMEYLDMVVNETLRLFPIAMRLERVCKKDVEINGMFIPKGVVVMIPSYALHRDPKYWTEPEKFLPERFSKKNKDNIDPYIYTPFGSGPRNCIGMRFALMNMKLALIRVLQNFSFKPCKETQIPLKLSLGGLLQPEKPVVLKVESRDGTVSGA
Sequence of CYP2C9 (P11712 whole entry): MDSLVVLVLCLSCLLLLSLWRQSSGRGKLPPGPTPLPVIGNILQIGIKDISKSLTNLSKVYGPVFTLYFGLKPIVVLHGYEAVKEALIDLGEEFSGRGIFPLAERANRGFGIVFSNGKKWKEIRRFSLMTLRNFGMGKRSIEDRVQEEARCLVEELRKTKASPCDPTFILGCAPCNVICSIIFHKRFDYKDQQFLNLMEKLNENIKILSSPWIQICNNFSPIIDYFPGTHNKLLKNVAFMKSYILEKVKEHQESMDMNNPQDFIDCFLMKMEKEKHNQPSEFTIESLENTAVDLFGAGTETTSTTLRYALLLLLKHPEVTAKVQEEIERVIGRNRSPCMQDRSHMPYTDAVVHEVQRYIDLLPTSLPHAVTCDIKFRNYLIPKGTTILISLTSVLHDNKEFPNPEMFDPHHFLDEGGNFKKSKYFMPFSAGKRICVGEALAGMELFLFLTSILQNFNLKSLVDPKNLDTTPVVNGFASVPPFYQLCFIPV

Cc1cnc(C(=O)c2ccnc3[nH]ncc23)c(NS(=O)(=O)c2ccc(Cl)c(C(F)(F)F)c2)c1
IC50 (CYP3A4): 3 µM | MRT [1]: 0.583 h

COC1=C(C(=O)c2ncc(C)cc2NS(=O)(=O)c2ccc(Cl)c(C(F)(F)F)c2)C2C=CNC2N=C1 (stereo not shown)
IC50 (CYP3A4): 3 µM | MRT [1]: 0.367 h | half-life [1]: 0.317 h

O=C(C1=CC=NC2NC=CC12)c1ncc(Cl)cc1NS(=O)(=O)c1ccc(Cl)c(C(F)(F)F)c1 (stereo not shown)
MRT [1]: 0.35 h | half-life [1]: 0.7 h | IC50 (CYP2C9): 3 µM

O=C(c1ncc(Cl)cc1NS(=O)(=O)c1ccc(Cl)c(C(F)(F)F)c1)c1ncnc2[nH]ccc12
MRT [1]: 1.13 h | half-life [1]: 2.12 h | IC50 (CYP2C9): 15 µM

Cc1cnc(C(=O)c2ncnc3[nH]ccc23)c(NS(=O)(=O)c2ccc(Cl)c(C(F)(F)F)c2)c1 [Compound 5, 4-Chloro-N-[5-methyl-2-(7H-pyrrolo[2,3-d]pyrimidine-4-carbonyl)-pyridin-3-yl]-3-trifluoromethyl-benzenesulfonamide]
IC50 (CCR2): ~0.005 µM | MRT (in vivo; iv, 1 mg/kg): 7.2 h | Vd (in vivo; iv, 1 mg/kg): 0.1 L/kg | clearance (in vivo; iv, 1 mg/kg): 0.2 mL/min/kg | half-life (in vivo; iv, 1 mg/kg): 4.7 h | bioavailability (in vivo; oral, 5 mg/kg): ~100% | Cmax (in vivo; po, 5 mg/kg): 44400 ng/mL and ~59.5 µM | Tmax (in vivo; po, 5 mg/kg): 1.5 h | oral bioavailability [2]: about 100%

O=C(c1ncc(Cl)cc1NS(=O)(=O)c1ccc(Cl)c(C(F)(F)F)c1)c1cncc2[nH]ccc12 [Compound 11, 4-Chloro-N-[5-chloro-2-(1H-pyrrolo[2,3-c]pyridine-4-carbonyl)-pyridin-3-yl]-3-trifluoromethyl-benzenesulfonamide]
IC50 (CCR2; [3]): < 1 µM

Cc1cnc(C(=O)c2cncc3[nH]ccc23)c(NS(=O)(=O)c2ccc(Cl)c(Cl)c2)c1 [Compound 12, 3,4-Dichloro-N-[5-methyl-2-(1H-pyrrolo[2,3-c]pyridine-4-carbonyl)-pyridin-3-yl]-benzenesulfonamide]
IC50 (CCR2; [3]): < 1 µM

Cc1cnc(C(=O)c2ncnc3[nH]ccc23)c(NS(=O)(=O)c2ccc(Cl)c(C(F)(F)F)c2)c1 [drawing 76]
IC50 (CYP3A4): 20 µM | MRT [1]: 2.25 h

Cc1cnc(C(=O)c2ncnc3[nH]ccc23)c(NS(=O)(=O)c2ccc(Cl)c(C(F)(F)F)c2)c1 [drawing 78]
half-life [1]: 2.68 h
